Measurements: publication PMC11060137, “A Phase I Study of KIN-3248, an Irreversible Small-molecule Pan-FGFR Inhibitor, in Patients with Advanced FGFR2/3-driven Solid Tumors” (Cancer Research Communications, 2024)
Read-outs that look alike come from different tables or passages of the source.

Columns and labels:
phospho-ERK = experiment: Phospho-ERK relative to total ERK by IHC in paired biopsies; assay type: in vivo, human
Method: As FGFR1 is expressed in renal tubules and pharmacologic inhibition of FGFR1 leads to phosphate retention ([18]), serum phosphate levels were measured at each study visit as a pharmacodynamic biomarker. Paired pretreatment and on-treatment biopsies (cycle 1 day 8 to day 21) were collected and analyzed for phospho-ERK and total ERK by IHC. DUSP6 gene expression was measured in tumor samples using RNA ISH (RNAscope; probes from Advanced Cell Diagnostics).

[1] = tested on: patients with advanced solid tumors harboring FGFR2 and/or FGFR3 gene alterations
Method: The study was divided into two parts. […] The secondary objectives included antitumor activity in Part A, determination of pharmacokinetics and pharmacodynamics.
Dose level 1 was started at 5 mg oral daily, and patients were escalated on study to 50 mg daily. On the basis of ongoing efficacy, toxicity, and pharmacokinetic analysis, a planned amendment added additional cohorts up to 80 mg orally daily to define the MTD/RP2D. […] One cycle was 28 days of continuous dosing. Intrapatient dose escalation after safely tolerating two cycles was allowed if per protocol criteria were met. Patients continued therapy until evidence of disease progression, intolerance or unacceptable toxicity, withdrawal of consent, investigator decision, sponsor decision, or death.
Patients were evaluated with medical history, physical examinations, and clinical laboratory on days 1, 8, 15, and 22 of cycle 1; days 1 and 15 from cycle 2 through cycle 5; and day 1 of each subsequent cycle. […] Except for hyperphosphatemia, adverse events (AE) were graded according to the NCI-CTCAE (Common Terminology Criteria for Adverse Events) Version 5.0 at each study visit and for approximately 30 days following end of treatment.
The primary endpoints for the overall study, included: the incidence of DLTs, incidence of AEs, treatment-emergent AEs (TEAE), and treatment-related AEs (TRAE).

Structure (SMILES): C=CC(=O)N1C[C@@H](n2nc(C#Cc3c(F)cc4c(ncn4C4CC4)c3F)c(C(N)=O)c2NC)C[C@@H]1COC [KIN-3248]
- Phospho-ERK relative to total-ERK (phospho-ERK; eleven paired biopsy samples, IHC): trend toward reduction
- Samples tested with a reduction in p-ERK (phospho-ERK; paired pretreatment and on-treatment biopsies): 50%
- Patients with treatment reduced and discontinued because of TEAEs ([1]; 7 patients): 13.0%
- Patients with treatment-related grade 3 events ([1]; 11 of 54 patients): 20.4%
- Patients with treatment interrupted because of TEAEs ([1]; 16 patients): 29.6%
- Patients with TEAE grade ≥3 events ([1]; 25 of 54 patients): 46.3%
- Patients with TRAEs of any grade ([1]; 47 of 54 patients): 87.0%
- Patients with TEAEs of any grade ([1]; 53 of 54 patients): 98.1%
- TRAE of any grade: diarrhea ([1]; 54 patients): 25.9%
- TRAE of any grade: hyperphosphatemia ([1]; 54 patients): 64.8%
- TRAE of any grade: stomatitis ([1]; 54 patients): 16.7%
- Number of dose-limiting toxicities (DLT) ([1]; 54 patients, 5-50 mg orally daily, DLT at dose level 1 (5 mg): grade 3 drug hypersensitivity reaction): one
- Patient with any TEAE, n (%) ([1]; CTCAE (V5) Grade 1–2, N = 54): 28 (51.9%)
- TEAE Alanine aminotransferase increased, n (%) ([1]; CTCAE (V5) Grade 1–2, N = 54): 5 (9.3%)
- TEAE Aspartate aminotransferase increased, n (%) ([1]; CTCAE (V5) Grade 1–2, N = 54): 4 (7.4%)
- TEAE Blood and lymphatic system disorders, n (%) ([1]; CTCAE (V5) Grade 1–2, N = 54): 9 (16.7%)
- TEAE Blood creatinine increased, n (%) ([1]; CTCAE (V5) Grade 1–2, N = 54): 7 (13.0%)
- TEAE Constipation, n (%) ([1]; CTCAE (V5) Grade 1–2, N = 54): 12 (22.2%)
- TEAE Decreased appetite, n (%) ([1]; CTCAE (V5) Grade 1–2, N = 54): 6 (11.1%)
- TEAE Diarrhea, n (%) ([1]; CTCAE (V5) Grade 1–2, N = 54): 17 (31.5%)
- TEAE Dry mouth, n (%) ([1]; CTCAE (V5) Grade 1–2, N = 54): 8 (14.8%)
- TEAE Eye disorders, n (%) ([1]; CTCAE (V5) Grade 1–2, N = 54): 12 (22.2%)
- TEAE Fatigue, n (%) ([1]; CTCAE (V5) Grade 1–2, N = 54): 11 (20.4%)
- TEAE Gastrointestinal disorders, n (%) ([1]; CTCAE (V5) Grade 1–2, N = 54): 35 (64.8%)
- TEAE General disorders and administration site conditions, n (%) ([1]; CTCAE (V5) Grade 1–2, N = 54): 18 (33.3%)
- TEAE Hypercalcemia, n (%) ([1]; CTCAE (V5) Grade 1–2, N = 54): 5 (9.3%)
- TEAE Hyperphosphatemia, n (%) ([1]; CTCAE (V5) Grade 1–2, N = 54): 29 (53.7%)
- TEAE Infections and infestations, n (%) ([1]; CTCAE (V5) Grade 1–2, N = 54): 4 (7.4%)
- TEAE Investigations, n (%) ([1]; CTCAE (V5) Grade 1–2, N = 54): 19 (35.2%)
- TEAE Metabolism and nutrition disorders, n (%) ([1]; CTCAE (V5) Grade 1–2, N = 54): 30 (55.6%)
- TEAE Musculoskeletal and connective tissue disorders, n (%) ([1]; CTCAE (V5) Grade 1–2, N = 54): 14 (25.9%)
- TEAE Nausea, n (%) ([1]; CTCAE (V5) Grade 1–2, N = 54): 6 (11.1%)
- TEAE Nervous system disorders, n (%) ([1]; CTCAE (V5) Grade 1–2, N = 54): 7 (13.0%)
- TEAE Psychiatric disorders, n (%) ([1]; CTCAE (V5) Grade 1–2, N = 54): 7 (13.0%)
- TEAE Respiratory, thoracic, and mediastinal disorders, n (%) ([1]; CTCAE (V5) Grade 1–2, N = 54): 7 (13.0%)
- TEAE Skin and subcutaneous tissue disorders, n (%) ([1]; CTCAE (V5) Grade 1–2, N = 54): 14 (25.9%)
- TEAE Stomatitis, n (%) ([1]; CTCAE (V5) Grade 1–2, N = 54): 11 (20.4%)
- TEAE Vascular disorders, n (%) ([1]; CTCAE (V5) Grade 1–2, N = 54): 5 (9.3%)
- Patient with any TEAE, n (%) ([1]; CTCAE (V5) Grade 3, N = 54): 18 (33.3%)
- TEAE Alanine aminotransferase increased, n (%) ([1]; CTCAE (V5) Grade 3, N = 54): 1 (1.9%)
- TEAE Anemia, n (%) ([1]; CTCAE (V5) Grade 3, N = 54): 2 (3.7%)
- TEAE Aspartate aminotransferase increased, n (%) ([1]; CTCAE (V5) Grade 3, N = 54): 2 (3.7%)
- TEAE Blood and lymphatic system disorders, n (%) ([1]; CTCAE (V5) Grade 3, N = 54): 3 (5.6%)
- TEAE Blood creatinine increased, n (%) ([1]; CTCAE (V5) Grade 3, N = 54): 0
- TEAE Constipation, n (%) ([1]; CTCAE (V5) Grade 3, N = 54): 0
- TEAE Decreased appetite, n (%) ([1]; CTCAE (V5) Grade 3, N = 54): 0
- TEAE Diarrhea, n (%) ([1]; CTCAE (V5) Grade 3, N = 54): 0
- TEAE Dry mouth, n (%) ([1]; CTCAE (V5) Grade 3, N = 54): 0
- TEAE Eye disorders, n (%) ([1]; CTCAE (V5) Grade 3, N = 54): 0
- TEAE Fatigue, n (%) ([1]; CTCAE (V5) Grade 3, N = 54): 0
- TEAE Gastrointestinal disorders, n (%) ([1]; CTCAE (V5) Grade 3, N = 54): 5 (9.3%)
- TEAE General disorders and administration site conditions, n (%) ([1]; CTCAE (V5) Grade 3, N = 54): 0
- TEAE Hypercalcemia, n (%) ([1]; CTCAE (V5) Grade 3, N = 54): 1 (1.9%)
- TEAE Hyperphosphatemia, n (%) ([1]; CTCAE (V5) Grade 3, N = 54): 8 (14.8%)
- TEAE Infections and infestations, n (%) ([1]; CTCAE (V5) Grade 3, N = 54): 4 (7.4%)
- TEAE Investigations, n (%) ([1]; CTCAE (V5) Grade 3, N = 54): 2 (3.7%)
- TEAE Metabolism and nutrition disorders, n (%) ([1]; CTCAE (V5) Grade 3, N = 54): 10 (18.5%)
- TEAE Musculoskeletal and connective tissue disorders, n (%) ([1]; CTCAE (V5) Grade 3, N = 54): 1 (1.9%)
- TEAE Nausea, n (%) ([1]; CTCAE (V5) Grade 3, N = 54): 0
- TEAE Nervous system disorders, n (%) ([1]; CTCAE (V5) Grade 3, N = 54): 2 (3.7%)
